According to US20240150755A1, “MODULATING REGULATORY T CELL FUNCTION IN AUTOIMMUNE DISEASE AND CANCER” (Salk Institute for Biological Studies, priority 2021, published 2024):
Entries after “also recorded” stand apart in the source; their conditions may differ.

Legend:
Type in all cases: cell-based, mouse
Foxp3-bound sites = assay: Foxp3 ChIP-seq in Treg cells
From the text: (§1) For large scale Treg culture, Tregs were first expanded in Rosa-Cas9/Foxp3^Thy1.1 mice by injecting IL-2:IL-2 antibody immune complex according protocol described in Webster et. al (J Exp Med 206, 751-760, 2009). Spleen and lymph node Treg cells were labeled with PE-conjugated Thy1.1 antibody and isolated by magnetic selection using anti-PE microbeads (Mitenyl #130-048-801). All isolated Treg cells were activated by plate bound anti-CD3 and anti-CD28 antibodies and cultured with X-VIVO® 20 media (LONZA #04-448Q) supplemented by 1× Pen/Strep, 1× Sodium pyruvate, 1× HEPES, 1× GlutaMax™, 55 μM beta-mercaptoethanol in the presence of IL-2 at 500 units/mL. For experiments with Brd9 degradation, Treg cells were treated at day 0 with 2.5 μM dBRD9 (Tocris #6606) and cultured for four days for RNA- and ChIP-seq and 0.16-10 μM treated at day 0 and cultured dBRD9 for four days for Foxp3 MFI, cell viability and cell proliferation assays. Live cells were enriched by Ficoll-Paque® 1.084 (GE Health 17-5446-02) for RNA-seq and ChIP-seq.
(§2) Treg cells were collected and cross-linked first in 3 mM disuccinimidyl glutarate (DSG) in 1×PBS for thirty minutes then in 1% formaldehyde for another ten minutes, both at RT, for chromatin binding protein ChIP or in 1% formaldehyde only for histone modification ChIP. After quenching the excess cross-linker with a final concentration of 125 mM glycine, the cells were washed in 1× PBS, pelleted, flash-frozen in liquid nitrogen, and stored at −80° C. Cell pellets were thawed on ice and incubated in lysis solution (50 mM HEPES-KOH pH 8, 140 mM NaCl, 1 mM EDTA, 10% glycerol, 0.5% NP40, 0.25% Triton X-100) for ten minutes. The isolated nuclei were washed with wash solution (10 mM Tris-HCl pH 8, 1 mM EDTA, 0.5 mM EGTA, 200 mM NaCl) and shearing buffer (0.1% SDS, 1 mM EDTA, 10 mM Tris-HCl pH 8) then sheared in a Covaris® E229 sonicator for ten minutes to generate DNA fragments between ˜200-1000 base pairs (bp). After clarification of insoluble material by centrifugation, the chromatin was immunoprecipitated overnight at 4° C. with antibodies against Foxp3, Smarca4, Brd9, Phf10 or H3K27ac. The next day, the antibody bound DNA was incubated with Protein A+G Dynabeads™ (Invitrogen) in ChIP buffer (50 mM HEPES-KOH pH 7.5, 300 mM NaCl, 1 mM EDTA, 1% Triton X-100, 0.1% DOC, 0.1% SDS), washed and treated with Proteinase K and RNase A. Cross-linking was reversed by incubation at 55° C. for two and a half hours. Purified ChIP DNA was used for library generation (NuGen Ovation® Ultralow Library System V2) according to manufacturer's instructions for subsequent sequencing.
Single-end 50 bp or paired-end 42 bp reads were aligned to mouse genome mm10 using STAR alignment tool (V2.5) (Dobin et al., Bioinformatics 29:15-21, 2013). ChIP-Seq peaks were called using findPeaks within HOMER using parameters for histone (-style histone) or transcription factor (-style factor) (homer.ucsd.edu/homer/index.html). Peaks were called when enriched >two-fold over input and >four-fold over local tag counts, with FDR 0.001. For histone ChIP, peaks within a 1000 bp range were stitched together to form regions. Differential ChIP peaks were found by merging peaks from control and experiment groups and called using getDiffExpression.pl with fold change ≥1.5 or ≤−1.5, Poisson p value<0.0001.

Foxp3 target genes = assay: RNA-seq and gene set enrichment analysis in Treg cells; settings: sgRNA transduced Treg cells vs sgNT
From the text: as §1
RNA from 1-3×10^6 cells was extracted and purified with TRIzol™ reagent (Thermo Fisher) according to manufacturer's instructions. RNA-seq libraries were prepared using Illumina® TruSeq® Stranded mRNA kit following manufacturer's instructions with 5 μg of input RNA.
Single-end 50 bp reads were aligned to the mouse genome mm10 using STAR alignment tool (V2.5) (Dobin et al., Bioinformatics 29:15-21, 2013). RNA expression was quantified as raw integer counts using analyzeRepeats.pl in HOMER (Heinz et al., Mol Cell 38:576-589, 2010) using the following parameters: -strand both -count exons -condenseGenes -noadj. To identify differentially expressed genes, getDiffExpression.pl in HOMER was used, which uses the DESeq2R package to calculate the biological variation within replicates. Cut-offs were set at log 2 FC=0.585 and FDR at 0.05 (Benjamin-Hochberg). Principal Component Analysis (PCA) was performed with the mean of transcript per million (TPM) values using Cluster 3.0 with the following filter parameters: at least one observation with absolute value equal or greater than two and gene vector of four. TPM values were log transformed then centered on the mean.
GSEA software (Mootha et al., Nat Genet 34:267-273, 2003; Subramanian et al., PNAS 102:15545-15550, 2005) was used to perform the analyses with the following parameters: number of permutations=1000; enrichment statistic=weighted; and metric for ranking of genes=difference of classes (Input RNA-seq data was log-transformed). For GSEA analysis, input RNA-seq data contained the normalized log-transformed reads of the 1,325 differentially expressed genes (DEGs) in sgFoxp3/sgNT Treg cells. The compiled gene list included GSEA Gene Ontology, Immunological Signature, Curated Gene, and the up and down DEGs in sgBrd9/sgNT Treg cells.
For gene expression analysis in FIG. 42F, Foxp3 ChIP-seq tags were quantified at the union of sites bound by Foxp3 in sgNT and sgBrd9 using the annotatePeaks.pl command in HOMER with size-given and each site was annotated to a gene by mapping to the nearest TSS. Sites were ranked from least to largest Foxp3 ChIP-seq Log2FC in sgBrd9 vs sgNT and divided into quartiles. Gene expression for the genes in the top and bottom quartiles (Brd9-dependent and -independent, respectively) was then plotted using RNA-seq data from Treg cells transduced with sgBrd9, sgSmarcd1, or sgPbrm1 compared to sgNT. […]

H3K27ac = H3K27ac ChIP-seq in Treg cells; settings: sgRNA transduced Treg cells
Experimental: as §2, with “The next day, the antibody bound DNA was incubated with Protein A+G Dynabeads™ (Invitrogen) in ChIP buffer (50 mM HEPES-KOH pH 7.5, 300 mM NaCl, 1 mM EDTA, 1% Triton X-100, 0.1% DOC, 0.1% SDS), washed and treated with Proteinase K and RNase A. Cross-linking was reversed by incubation at 55° C. for two and a half hours. Purified ChIP DNA was used for library generation (NuGen Ovation® Ultralow Library System V2) according to manufacturer's instructions for subsequent sequencing.” left out
Single-end 50 bp or paired-end 42 bp reads were aligned to mouse genome mm10 using STAR alignment tool (V2.5) (Dobin et al., Bioinformatics 29:15-21, 2013). […]

Treg cells [1] = assay: Cell division by CellTrace dilution in Treg cells; settings: dBRD9 in increasing concentrations for 4 days
From the text: as §1

Foxp3 = Foxp3 expression (MFI) in Treg cells by flow cytometry
From the text: as §1
HEK293T cells were seeded in 6-wells plate at 0.5 million cells per 2 mL DMEM media supplemented by 10% FBS, 1% Pen/Strep, 1× GlutaMax®, 1× Sodium Pyruvate, 1× HEPES, and 55 μM beta-mercaptoethanol. […] Transduced cells were analyzed for Foxp3 and cytokine expression in eBioscience® Fix/Perm buffer (eBioscience #00-5523-00) using flow cytometry. […]

Treg cells [2] = assay: In vitro Treg suppression assay
From the text: Treg cells were transduced by retrovirus expressing sgRNA targeting gene of interest and cultured in X-VIVO® complete media supplemented with IL-2 (500 U/ml). Four days after transduction, transduced cells were […] a fluorescence-activated cell sorter (FACS). CD45.1+ naive CD4 T cells (CD4^+CD25^−CD44^loCD62^hi) were labeled with CellTrace™ Violet (Thermo Fisher Scientific #C34571) in different ratio in the presence of irradiated T cell depleted spleen cells as antigen-presenting cells (APC). Three days later, Treg suppression function was measured by the percentage of non-dividing cells within the CD45.1^+ effector T cell population. For dBRD9 treatment experiment, dBRD9 was first dissolved in DMSO (10 mM stock) and added into Treg:Teff:APC mixture at 2.5 μM. For Foxp3 overexpression rescue experiment, Treg cells were first transduced with sgNT or sgBrd9 at 24 hour post-activation, and then transduced with MIGR empty vector or MIGR-Foxp3 at 48 hour post-activation. Double transduced Treg cells were FACS sorted on day 4 based on NGFR+ and GFP+ markers and then mixed with CellTrace™ labeled effector T cells in the presence of APC. Treg suppression readout was measured after three days of co-culture.

Treg cells [3] = assay: Cell viability by Ghost Dye in Treg cells; settings: dBRD9 in increasing concentrations for 4 days
From the text: as §1

In the case of “sgFoxp3: sgRNA targeting Foxp3, TCTACCCACAGGGATCAATG (SEQ ID NO: 1) (expressed or natural sequence)”, the “Foxp3 binding at CNS2/CNS0” value (Foxp3-bound sites; sgRNA transduced Treg cells) is reported as “dramatic reduction in Foxp3 binding at CNS2/CNS0”, the “Foxp3 binding sites at which Foxp3 binding was lost” value (Foxp3-bound sites; sgRNA transduced Treg cells, genome-wide) is reported as “over 85%” and the “genes with increased expression” value (Foxp3 target genes; RNA-seq) is reported as 532 genes. The “genes with reduced expression” value (Foxp3 target genes; RNA-seq) was 793 genes and the “H3K27ac at Brd9-dependent Foxp3 sites” value (H3K27ac) was “reduction in H3K27ac”.
For “sgSmarcd1: sgRNA targeting Smarcd1, CAATCCGGCTAAGTCGGACG (SEQ ID NO: 15) (expressed or natural sequence)”, the “gene expression of Brd9-dependent vs Brd9-independent Foxp3 target genes” value (Foxp3 target genes) was “significantly more affected”.
`COc1cc(-c2cn(C)c(=O)c3cnccc23)cc(OC)c1CN(C)CC(=O)NCCOCCOCCNc1cccc2c1C(=O)N(C1CCC(=O)NC1=O)C2=O` (stereo not shown) [dBRD9] was tested, and the cell proliferation (Treg cells [1]) was “without affecting cell viability or proliferation; also recorded: without affecting cell viability and proliferation”, the “Foxp3 binding to chromatin” value (Foxp3-bound sites; Treg cells, 2.5 μM dBRD9 for 4 days vs DMSO) was “diminished Foxp3 binding to chromatin at a subset of Foxp3 target sites” and the “Foxp3 expression (MFI)” value (Foxp3; Treg cells, 0.16-10 μM dBRD9 for 4 days vs DMSO) was “significantly decreased Foxp3 expression in Treg cells in a concentration-dependent manner; also recorded: reduces Foxp3 expression”. For the same molecule, the T effector responses (Treg cells [2]; dBRD9 2.5 μM, in vitro) was “without impairing T effector responses”, the Treg suppressor function (Treg cells [2]; dBRD9 added to Treg:Teff:APC mixture at 2.5 μM) was “significantly and specifically compromised Treg suppressor function; also recorded: reduces Treg suppressor activity” and the cell viability (Treg cells [3]) was “without affecting cell viability”.
In the case of “sgPbrm1: sgRNA targeting Pbrm1, AAAACACTTGCATAACGATG (SEQ ID NO: 8) (expressed or natural sequence)”, the “Foxp3 binding at CNS2/CNS0” value (Foxp3-bound sites; sgRNA transduced Treg cells) is reported as “subtle increase in Foxp3 binding at CNS2/CNS0” and the “Foxp3 binding at a subset of Foxp3 sites (Brd9-dependent sites)” value (Foxp3-bound sites; sgRNA transduced Treg cells, FC1.5, Poisson p<0.0001) is reported as “did not change”.
“sgUsp22: sgRNA targeting Usp22, GCCATCGACCTGATGTACGG (SEQ ID NO: 18) (expressed or natural sequence)” was tested, and the “Foxp3 expression (MFI)” value (Foxp3; sgRNA transduced Cas9 Treg cells vs sgNT) was “reduces Foxp3 expression” and the Treg suppressor activity (Treg cells [2]; sgRNA transduced Treg cells vs sgNT) was “compromised Treg suppressor activity”.
